From patent US11149050B2, “Highly soluble steviol glycosides” (PureCircle USA Inc., priority 2016, dated 2021)
Like-named read-outs stand apart in the source and are kept apart here.

Legend:
[1] = cited from earlier work
[2] = cited from earlier work; for water solubility at room temperature: pure (>95% w/w) compound, room temperature (25° C.); for solubility (in words): water
[3] = Solubility in RO water at room temperature (25° C.) within 5 minutes, soluble if <10 FAU turbidity; assay type: physicochemical; conditions: crystalline material
Method: Hereinafter, unless specified otherwise, the solubility of material is determined in RO (reverse osmosis) water at room temperature (25° C.) within 5 minutes.
Hereinafter, where the solubility is expressed as “%”, it to be understood as number of grams of material soluble in 100 grams of solvent.
Hereinafter, the descriptive terms for solubility are provided according to definitions in Combined Compendium of Food Additive Specifications Vol. 4 (FAO JECFA Monographs 1, Rome 2006, page 41).
Procedure: Unless otherwise specified, transfer a known amount of the sample into a flask containing known amount of the specified solvent, shake for no less than 30 sec and no more than 5 min.”
The material is deemed soluble at certain concentration if the produced solution has <10 FAU (Formazin Attenuation Unit) turbidity value.

| solubility, JECFA descriptive term [3] | SMILES | Rate of dissolution in H2O at 25° C. (descriptive) [1] | Rate of dissolution in H2O at 25° C. ([1]; in 5 minutes) | water solubility at room temperature [2] | solubility (in words) [2] | further results |
| --- | --- | --- | --- | --- | --- | --- |
|  | C=C1C[C@@]23CC[C@H]4[C@@](C)(CCC[C@@]4(C)C(=O)O[C@@H]4O[C@H](CO)[C@@H](O)[C@H](O)[C@H]4O)[C@@H]2CC[C@]1(O[C@@H]1O[C@H](CO)[C@@H](O)[C@H](O[C@@H]2O[C@H](CO)[C@@H](O)[C@H](O)[C@H]2O)[C@H]1O[C@@H]1O[C@H](CO)[C@@H](O)[C@H](O)[C@H]1O)C3 [Form 3, Rebaudioside A] | High | (>30% in |  |  |  |
| very slightly soluble | C=C1C[C@@]23CC[C@H]4[C@@](C)(CCC[C@@]4(C)C(=O)O[C@@H]4O[C@H](CO)[C@@H](O)[C@H](O)[C@H]4O[C@@H]4O[C@H](CO)[C@@H](O)[C@H](O)[C@H]4O)[C@@H]2CC[C@]1(O[C@@H]1O[C@H](CO)[C@@H](O)[C@H](O[C@@H]2O[C@H](CO)[C@@H](O)[C@H](O)[C@H]2O)[C@H]1O[C@@H]1O[C@H](CO)[C@@H](O)[C@H](O)[C@H]1O)C3 [Rebaudioside D] |  |  | less than 0.05% | very low water solubility |  |
|  | C=C1C[C@@]23CC[C@H]4[C@@](C)(CCC[C@@]4(C)C(=O)O[C@@H]4O[C@H](CO)[C@@H](O)[C@H](O)[C@H]4O)[C@@H]2CC[C@]1(O[C@@H]1O[C@H](CO)[C@@H](O)[C@H](O[C@@H]2O[C@H](CO)[C@@H](O)[C@H](O)[C@H]2O)[C@H]1O[C@@H]1O[C@H](CO)[C@@H](O)[C@H](O)[C@H]1O)C3 [Form 1, Rebaudioside A] | Very low |  |  |  | solubility (in words) ([2]; listed as hydrate form of Rebaudioside A): lowest solubility; Rate of dissolution in H2O at 25° C. ([1]; in 60 minutes): (<0.2% in 60 |
| very slightly soluble | C=C1C[C@@]23CC[C@H]4[C@@](C)(CCC[C@@]4(C)C(=O)O[C@@H]4O[C@H](CO)[C@@H](O)[C@H](O[C@@H]5O[C@H](CO)[C@@H](O)[C@H](O)[C@H]5O)[C@H]4O[C@@H]4O[C@H](CO)[C@@H](O)[C@H](O)[C@H]4O)[C@@H]2CC[C@]1(O[C@@H]1O[C@H](CO)[C@@H](O)[C@H](O[C@@H]2O[C@H](CO)[C@@H](O)[C@H](O)[C@H]2O)[C@H]1O[C@@H]1O[C@H](CO)[C@@H](O)[C@H](O)[C@H]1O)C3 [Rebaudioside M] |  |  | about 0.1% | very low water solubility | solubility (in words) ([2]; listed as rebaudioside M): poor aqueous solubility |
|  | C=C1C[C@@]23CC[C@H]4[C@@](C)(CCC[C@@]4(C)C(=O)O[C@@H]4O[C@H](CO)[C@@H](O)[C@H](O)[C@H]4O)[C@@H]2CC[C@]1(O[C@@H]1O[C@H](CO)[C@@H](O)[C@H](O[C@@H]2O[C@H](CO)[C@@H](O)[C@H](O)[C@H]2O)[C@H]1O[C@@H]1O[C@H](CO)[C@@H](O)[C@H](O)[C@H]1O)C3 [Form 2, Rebaudioside A] | Intermediate | (<30% in 5 |  |  |  |
|  | C=C1C[C@@]23CC[C@H]4[C@@](C)(CCC[C@@]4(C)C(=O)O[C@@H]4O[C@H](CO)[C@@H](O)[C@H](O)[C@H]4O)[C@@H]2CC[C@]1(O[C@@H]1O[C@H](CO)[C@@H](O)[C@H](O[C@@H]2O[C@H](CO)[C@@H](O)[C@H](O)[C@H]2O)[C@H]1O[C@@H]1O[C@H](CO)[C@@H](O)[C@H](O)[C@H]1O)C3 [Form 4, Rebaudioside A] | High | (>35% in |  |  | solubility (in words) ([2]; listed as rebaudioside A amorphous forms): high solubility |
